Earlier results, collected in patent US20100069389A1, “NOVEL FORMS OF REBOXETINE” (Bionevia Pharmaceuticals, Inc., priority 2008, published 2010).

Conditions: humans; Denolle et al., Clin Pharmacol Ther. 1999

## CCOc1ccccc1OC(c1ccccc1)C1CNCCO1 (racemic) [Racemic reboxetine, (2RS)-2-[(RS)-(2-ethoxyphenoxy)-phenylmethyl]morpholine]
  Blood pressure and heart rate increases compared with (R,R)-reboxetine: greater blood pressure increases and heart rate increases in humans than does administration of (R,R)-reboxetine
